In patent US10399968B2, “Hydroxyalkyl thiadiazole derivatives” (Daiichi Sankyo Company, Limited, priority 2015, dated 2019):
In brackets after ≈: the same amount, converted by molar mass.

What was measured:
[1] = target: Clostridium difficile DNA gyrase (Clostridioides difficile, UniProt Q18C89); assay: DNA supercoiling inhibition assay; format: biochemical; conditions: supercoiling of relaxed pBR322 DNA, 60 minutes at 37° C.
Procedure, shortened: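 Relaxed pBR322 (400 ng) supercoiled by C. difficile gyrase for 60 min at 37 °C in Tris-HCl pH 7.5 with 6 mM MgCl2, 70 mM KCl, compounds added from 20% DMSO. Products resolved on 1.0% agarose, EtBr-stained; supercoiled band intensity quantified and IC50 fitted.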

S. aureus ATCC 29213 = assay: Susceptibility of bacteria, broth microdilution MIC; format: cell-based; conditions: Staphylococcus aureus, ATCC29213
Procedure, shortened: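 CLSI M7-A7 broth microdilution with 2-fold serial compound dilutions; inoculum from 0.5 McFarland suspension diluted 10-fold, 4 μL per well. Incubated 35 °C for about 20 h; MIC is the lowest concentration preventing visible growth.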

[2] = test system: Clostridium difficile ATCC 43255; assay: Susceptibility of Clostridium difficile, agar dilution MIC; format: cell-based; conditions: Clostridioides difficile, ATCC43255, anaerobic
Procedure, shortened: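 Agar dilution per CLSI M11-A8 on supplemented Brucella agar containing compound dilutions. Inoculum from 0.5 McFarland suspension, 1-2 μL spots; anaerobic incubation at 36° C for 42 to 48 hours. MIC read by eye as the concentration giving marked growth reduction versus compound-free anaerobic control plates.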

[3] = Oral bioavailability (BA) in monkeys; format: in vivo, Macaca fascicularis; conditions: male, cynomolgus monkey, blood, 1 mg/kg oral vs jugular vein
Description: To male Macaca fascicularis (3 or 4 year-old) fasted overnight, a solution of the test compound Captisol® was administered into the jugular vein (3 animals) and a solution of Lutrol® F68 was orally administered (3 animals). The dose of both test compounds was 1 mg/kg body weight of the monkey. The amount of Captisol® used was 0.18 mg/kg body weight of the monkey. The amount of Lutrol® F68 used was 0.02 mg/kg body weight of the monkey. The BA value was calculated by the formula below using the integration value (AUCiv(0-∞)) of the blood concentration extrapolated from time 0 to infinity after administration of both test compounds. BA(%)=[[(AUCpo(0-∞))/(dose po)]/[(AUCiv(0-∞))/(dose iv)]]×100 The greater a BA value of the compound shown, the higher the oral bioavailability is.

Staphylococcus aureus = assay: Neutropenic mouse thigh or calf muscle infection model; format: in vivo; conditions: neutropenic mice, compared with linezolid
Description: After culture in broth medium (i) suitable diluent of a bacterial suspension of the Staphylococcus aureus strain, or (ii) equivalent mixture of suitable diluent of a bacterial suspension of the Enterococcus faecium strain and a 10% mucin suspension were used as the inoculum. The bacterial suspension was inoculated under anesthesia with a ketamine-xylazine mixture into the thigh or calf muscle of Swiss albino mice or ICR mice (4- to 6-week-old) compromised by the cyclophosphamide administration. The drug was administered to the mice 1 to 8 times at an interval of 3 to 24 hours. The number of bacteria in the thigh or calf muscle was counted for the non-treated group immediately before initial administration of the drug (pre-control), for the non-treated group (post-control) and for the drug-administered group on the next day of administration of the drug and infection. A change in the number of bacteria in the thigh or calf muscle was used as an index of therapeutic effect.

[4] = test system: Clostridium difficile 2009155, a NAP1/027 strain; assay: Hamster CDI model; format: in vivo; conditions: 0.3 mg/kg/day by oral route, 5 days
Description: The in vivo efficacy of test compounds were evaluated in a hamster CDI model caused by Clostridium difficile 2009155, a NAP1/027 strain. Syrine hamsters (6-8-weeks old) were primed with a single subcutaneous injection of clindamycin (30 mg/kg) 1-5 days prior to infection. Hamsters were infected by oral gavage with 1 ml of spore suspension ([…]) prepared in PBS. The drug was administered to the hamsters 6 hours post infection by oral or subcutaneous route at an interval of 24 hours for 5 days. The death and survival of the non-treated group and the drug-administered group were recorded once daily for 35 days.

Clostridium difficile DNA gyrase, sequence (Q18C90 entry or part of it): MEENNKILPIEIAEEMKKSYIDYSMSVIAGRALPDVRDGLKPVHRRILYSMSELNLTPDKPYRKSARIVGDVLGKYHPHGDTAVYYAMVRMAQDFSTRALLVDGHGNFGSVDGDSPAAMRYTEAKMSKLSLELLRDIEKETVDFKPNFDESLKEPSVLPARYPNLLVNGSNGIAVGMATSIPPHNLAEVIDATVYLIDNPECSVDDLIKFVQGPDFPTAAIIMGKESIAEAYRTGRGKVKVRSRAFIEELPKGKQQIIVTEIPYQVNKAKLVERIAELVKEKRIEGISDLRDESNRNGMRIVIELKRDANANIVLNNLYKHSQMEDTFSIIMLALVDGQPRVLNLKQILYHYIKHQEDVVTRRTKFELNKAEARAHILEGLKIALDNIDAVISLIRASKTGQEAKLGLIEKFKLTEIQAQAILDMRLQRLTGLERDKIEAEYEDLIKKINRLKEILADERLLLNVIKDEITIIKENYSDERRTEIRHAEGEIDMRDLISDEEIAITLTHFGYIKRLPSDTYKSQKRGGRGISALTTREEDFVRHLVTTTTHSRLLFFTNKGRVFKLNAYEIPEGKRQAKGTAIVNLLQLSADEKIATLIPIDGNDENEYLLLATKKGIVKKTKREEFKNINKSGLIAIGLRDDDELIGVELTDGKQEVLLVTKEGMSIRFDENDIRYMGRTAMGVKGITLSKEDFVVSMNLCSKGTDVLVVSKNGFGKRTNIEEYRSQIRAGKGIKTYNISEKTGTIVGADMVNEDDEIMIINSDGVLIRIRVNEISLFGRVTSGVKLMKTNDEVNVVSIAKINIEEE
Clostridium difficile DNA gyrase, sequence (Q18C89 entry or part of it): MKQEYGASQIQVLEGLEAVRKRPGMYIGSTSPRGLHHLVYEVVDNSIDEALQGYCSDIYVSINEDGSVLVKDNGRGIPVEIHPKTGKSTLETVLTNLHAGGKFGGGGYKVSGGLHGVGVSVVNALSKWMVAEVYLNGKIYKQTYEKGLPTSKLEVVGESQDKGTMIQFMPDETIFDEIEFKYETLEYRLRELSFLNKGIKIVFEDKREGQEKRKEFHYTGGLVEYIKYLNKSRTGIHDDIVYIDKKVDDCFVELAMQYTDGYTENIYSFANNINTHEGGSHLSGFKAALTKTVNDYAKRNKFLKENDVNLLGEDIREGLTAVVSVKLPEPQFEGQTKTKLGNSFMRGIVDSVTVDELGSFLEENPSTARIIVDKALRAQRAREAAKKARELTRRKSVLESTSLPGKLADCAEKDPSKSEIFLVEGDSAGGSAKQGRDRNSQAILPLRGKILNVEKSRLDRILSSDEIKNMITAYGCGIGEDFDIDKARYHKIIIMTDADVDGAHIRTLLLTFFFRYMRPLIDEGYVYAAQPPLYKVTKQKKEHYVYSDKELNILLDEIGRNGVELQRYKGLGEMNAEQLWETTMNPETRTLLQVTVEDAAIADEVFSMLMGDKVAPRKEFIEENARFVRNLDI

SMILES: CCc1[nH]c(C(=O)N[C@@H]2CCN(c3nnc([C@H](C)O)s3)C[C@@H]2OC)nc1Cl (single isomer, unassigned) [Compound No. 5]
- IC50 [1]: 21.7 nM
- MIC (S. aureus ATCC 29213): 0.5 µg/mL (≈ 1.21 µM)
- MIC [2]: 0.125 µg/mL (≈ 0.301 µM)
- bioavailability [3]: 100%
- therapeutic effect against Staphylococcus aureus (number of bacteria in thigh or calf muscle) (Staphylococcus aureus): equivalent to or higher than linezolid
- survival on day 35 [4]: 100%

SMILES: CCc1[nH]c(C(=O)N[C@@H]2CCN(c3nnc(C(C)(C)O)s3)C[C@@H]2OC)nc1Cl [Compound No. 2, 4-Chloro-5-ethyl-N-{(3S,4R)-1-[5-(2-hydroxypropan-2-yl)-1,3,4-thiadiazol-2-yl]-3-methoxypiperidin-4-yl}-1H-imidazole-2-carboxamide]
- IC50 [1]: 46.6 nM
- MIC (S. aureus ATCC 29213): 0.25 µg/mL (≈ 0.583 µM)
- MIC [2]: 0.06 µg/mL (≈ 0.14 µM)
- bioavailability [3]: 85%
- therapeutic effect against Staphylococcus aureus (number of bacteria in thigh or calf muscle) (Staphylococcus aureus): equivalent to or higher than linezolid
- survival on day 35 [4]: 100%
